{
  "source": "patent US8980842B2",
  "about": "“Contraceptive peptides derived from the venom of the spider Latrodectus mirabilis, nucleotide sequences to transform a microorganism to produce said peptides; methods to obtain the peptides; pharmaceutical compositions containing thereof and use thereof” (Universidad de la Frontera, priority 2010, dated 2015)",
  "key": {"[1]": {"test_system": "human spermatozoa", "experiment": "Sperm motility (immobilizing effect) assay in selected human spermatozoa (swim up)", "assay_type": "cell-based", "method": "The spermicidal effect of the wild-type peptide and the constructed analog was assayed by assessing the sperm motility in human spermatozoa. For this, 15 mL of HTF-0.1% BSA medium (0.02 g BSA in 20 mL HTF) and 3 mL of HTF-1% BSA medium (0.04 g BSA in 4 mL HTF) were placed in an assay tube and incubated at 37° C. Subsequently, a sample of 2.6 mL of human semen was incubated during 25 minutes until liquefaction. Once liquefied, the sample was divided into 3 15-mL conical tubes with 2 mL of warm HTF-0.1% BSA in each tube. 860 μL of liquefied semen were vertically added to the bottom of each tube, gently pipetting to homogenize the mixture avoiding the formation of bubbles. Large clots were removed. Subsequently, the sample was centrifuged for 8 minutes at 1,800 rpm and the supernatant was discarded by touching only the surface of the medium with the pipette tip just on the tube walls and pipetting out the liquid. […] Then, spermatozoa were counted, reaching values around 10 million of selected spermatozoa per mL (10×10^6/mL). Different concentrations of the total venom and the different venom fractions obtained in the chromatographic purification, as well as the constructed analog peptide, were applied to samples of the spermatozoid previously selected and counted and were incubated in HTF medium for 45 minutes at 37° C. […]"}, "[2]": {"test_system": "human spermatozoa", "experiment": "Hamster oocyte penetration assay (Yanagimachi et al. 1976), fertilizing capacity of human spermatozoa", "assay_type": "cell-based", "details": "agent at its IC50 from the sperm motility curve; n=15 oocytes per group; versus control", "method": "The decrease of the fertilizing capacity of human spermatozoa was assayed using penetration assays in hamster oocytes according to the protocol initially described by Yanagimachi et al. (1976). Briefly, golden hamster oocytes were collected; their […] was removed, and oocytes were subsequently incubated with previously capacitated human spermatozoa at a concentration of 10^7 spermatozoa/ml. The incubation was prolonged for 3-6 hours. […] The oocytes were observed using phase contrast microscopy and were only considered to have been penetrated by spermatozoa when they contained a head in decondensation stage or a male pronucleus inside their cytoplasm."}},
  "data": [
    {"substance": "20-amino acid linear analog of the venom peptide, cysteine 43 replaced by alanine; SLAKTNCFTTEYFQHCVKDL [Ac-[Ala^43]-ATX41-60-NH2]", "values": [
      {"measurement": "spermatozoids affected at maximal doses", "setting": "[1]; maximal doses (FIG. 2)", "result": 100, "unit": "%"},
      {"measurement": "IC50 of the immobilizing effect (spermatozoa with no progressive linear movement)", "setting": "[1]; selected human spermatozoa (swim up), incubated 45 minutes in HTF medium, 37° C.", "result": 39.81, "unit": "µg/mL"},
      {"measurement": "decrease in the fertilizing capacity of spermatozoa", "setting": "[2]", "result": "82±0.3", "unit": "%"}
    ]}
  ]
}
